Results published in patent publication US20220184081A1, “ANTIPRURITIC AGENT USING PAC1 RECEPTOR ANTAGONIST” (KAGOSHIMA UNIVERSITY, priority 2019, published 2022).

Experiments:
[1] = molecular target: T1, mouse PAC1 receptor (Mus musculus, UniProt P70205); test: CREB phosphorylation by PACAP stimulus, Western blot, PAC1/CHO cells; format: cell-based
T1 construct: expressed in transfected cells; host or cells: CHO cells
T1 sequence (P70205 21-496): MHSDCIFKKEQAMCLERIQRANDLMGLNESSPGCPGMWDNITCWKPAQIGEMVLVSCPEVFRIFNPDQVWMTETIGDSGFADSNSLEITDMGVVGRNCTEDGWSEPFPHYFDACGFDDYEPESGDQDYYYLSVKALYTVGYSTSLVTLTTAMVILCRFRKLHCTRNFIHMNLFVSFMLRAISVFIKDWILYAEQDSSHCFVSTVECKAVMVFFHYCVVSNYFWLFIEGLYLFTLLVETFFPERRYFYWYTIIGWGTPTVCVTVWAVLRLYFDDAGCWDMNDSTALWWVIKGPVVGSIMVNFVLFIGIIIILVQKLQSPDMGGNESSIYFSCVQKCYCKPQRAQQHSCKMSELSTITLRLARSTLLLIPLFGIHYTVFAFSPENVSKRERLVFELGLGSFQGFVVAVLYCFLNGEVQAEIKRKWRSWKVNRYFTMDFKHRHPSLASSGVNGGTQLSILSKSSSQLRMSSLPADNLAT
Procedure: The effect of each compound on the phosphorylation of CREB (cAMP-responsive element-binding protein) produced by a PACAP stimulus was examined by Western blot analysis using an anti-phosphorylated CREB (pCREB) antibody with a mouse PAC1 receptor-expressing CHO cells (PAC1/CHO cells) and a mouse VPAC1 receptor-expressing CHO cells (VPAC1/CHO cells).
Specifically, treatment with a compound (PA-8, compound 2j and compound 2o) at 10 pM to 10 nM or a solvent therefor, DMSO (VEH: 0.1% DMSO-containing phosphate buffer solution) was performed for 30 minutes, 1 nM PACAP was then added, and protein was recovered within 30 minutes after a PACAP stimulus.
The effect of each compound on the phosphorylation of CREB (cAMP-responsive element-binding protein) produced by a PACAP stimulus was examined by Western blot analysis using an anti-phosphorylated CREB (pCREB) antibody with a mouse PAC1 receptor-expressing CHO cells (PAC1/CHO cells).

[2] = tested on: psoriasis mouse model; test: Psoriasis mouse model (imiquimod); format: in vivo, ICR mice; settings: 30 mg/kg p.o. 30 minutes before 1 hour video observation; FIG. 14
Procedure: The present test was carried out with reference to the method of van der Fits et al. that is a test system published as a method for evaluating itch in animals (van der Fits L., Mounts S., Voerman J S A., et al.: Imiquimod-Induced Psoriasis-Like Skin Inflammation in Mice Is Mediated via the IL-23/IL-17 Axis, J. Immunol., 182, 5836-5845, 2009).
Five-week-old ICR mice (20 mice) were each placed in a cage, and were then conditioned for 1 week. Thereafter, three days before initiation of the test, the waist of each mouse was shaved. Then, 62.5 mg of commercially available imiquimod cream (5% Beselna Cream; MOCHIDA PHARMACEUTICAL CO., LTD.) was applied onto the shaved waist skin of the mice once a day for 5 days, so as to produce imiquimod-induced psoriasis model. Twenty-four hours after the final application of the cream (Day 5), video observation was carried out for 1 hour. The shaved 20 mice were divided into 5 groups (4 mice per group), namely, a 30 mg/kg PA-8 oral (p.o.) administration group, a 30 mg/kg compound 2o oral (p.o.) administration group, a 30 mg/kg PA-9 oral (p.o.) administration group, a 30 mg/kg compound 3d (p.o.) administration group, and a solvent administration group (VEH: oral administration of 10% DMSO aqueous solution). Oral administration was carried out 30 minutes before initiation of the video observation.

[3] = tested on: serotonin (5-HT)-induced itch mouse model; test: Serotonin (5-HT)-induced itch mouse model; format: in vivo; settings: intrathecal pre-administration 30 minutes before 5-HT 50 nmol i.d.; PA-8 0.1 or 1 nmol; P6-38 100 pmol; FIG. 1
Procedure: 5-HT (50 nmol, 10 μL) was intradermally injected into the waist of each mouse (intradermal injection, i.d.). The reaction of the mice to bite, lick or scratch the injected site was defined as an itch behavior, and the action time was measured every 5 minutes. […] SLN indicates the effects obtained in the case of administering normal saline instead of 5-HT. ACSF is an abbreviation of an artificial cerebrospinal fluid, which was a solvent for P6-38 and PA-8.

[4] = tested on: Compound 48/80-induced itch behavior in mice; test: Itch behavior induced by Compound 48/80 intradermal administration; format: in vivo, mouse; settings: intrathecal pre-administration (i.t., 10 minutes before i.d.), 1 nmol; Compound 48/80 100 μg/10 μL; FIG. 11
Procedure: Compound 48/80 (100 μg/10 μL) was intradermally injected into the waist of each mouse (intradermal injection, i.d.). The reaction of biting, licking or scratching the injected site was defined as itch behavior, and the behavioral time was counted every 5 minutes. […] DMSO (10% solution, dissolved in normal saline) is a solvent for PA-8 or PA-9.

[5] = tested on: PACAP-induced itch behavior in mice; test: Itch behavior induced by PACAP intradermal administration; format: in vivo, mouse; settings: simultaneous intradermal administration with PACAP, 0.01 to 1 nmol; FIG. 7A, 8, 9
Description: SLN indicates intradermal administration of normal saline. DMSO (10% solution, dissolved in normal saline) is a solvent for PA-8.
SLN indicates intradermal administration of normal saline. VEH (10% DMSO solution, dissolved in normal saline) is a solvent for PA-8 and the compound 2o.
SLN indicates intradermal administration of normal saline. VEH (10% DMSO solution, dissolved in normal saline) is a solvent for PA-9 and the compound 3d.

CREB phosphorylation by PACAP (1 nM) ([1]; PAC1/CHO cells, compound 10 pM to 10 nM for 30 minutes before PACAP, FIG. 4A, 4C, 4D, 5): suppressed CREB phosphorylation | receptor selectivity (PAC1 versus VPAC1) ([1]; concluded from PAC1/CHO and VPAC1/CHO pCREB data): PAC1 receptor selective antagonist
SMILES: C=CCOc1ccc(C2CC(=O)Nc3nc(N)[nH]c(=O)c32)cc1OC (stereo not drawn) [PA-8]
itch behavior induced by application of imiquimod (time spent in scratching) [2]: significantly suppressed | 5-HT-induced itch behavior (bite, lick or scratch the injected site, action time) [3]: almost completely suppressed | Compound 48/80-induced itch behavior [4]: almost completely suppressed | biting, licking or scratching behavior induced by PACAP (100 pmol) intradermal administration [5]: suppressed in a dose-dependent manner
